# Data as given in paper PMC5781198 (Influenza and Other Respiratory Viruses, 2013).
# How the values were obtained:
# [1] = tested on: influenza B viruses, neuraminidase (NA); type: biochemical, Influenza B virus
# [2] = tested on: influenza A(H1N1)pdm09 viruses, neuraminidase (NA); type: biochemical, Influenza A(H1N1)pdm09 virus
# [3] = tested on: influenza B Victoria lineage viruses, neuraminidase (NA); type: biochemical, Influenza B virus (Victoria lineage)
# [4] = tested on: influenza A(H3N2) viruses, neuraminidase (NA); type: biochemical, Influenza A(H3N2) virus
# [5] = tested on: A/Puerto Rico/34/2011 NA (D151D/G/N); type: biochemical, Influenza A(H3N2) virus
Compound,susceptibility in words [1],IC50 of outliers relative to the mean IC50 for the drug [2],susceptibility in words [2],susceptibility of A(H1N1)pdm09 viruses compared with A(H3N2) viruses [2],difference in IC50 between Victoria and Yamagata lineage viruses [3],IC50 of outliers relative to the mean IC50 for the drug [4],susceptibility in words [4],sensitivity compared with the other three NAIs [2],sensitivity compared with zanamivir and laninamivir [4],fold difference in IC50 [5]
"[H]/N=C(\N)N[C@H]1C=C(C(=O)O)O[C@@H]([C@H](OC)[C@H](O)CO)[C@@H]1NC(C)=O [Laninamivir, laninamivir]",showed sensitivity to the drug,approximately twofold more,showed sensitivity to the drug,approximately twofold more sensitive,no apparent differences,approximately twofold more,showed sensitivity to the drug,,,
"CC(=O)N[C@H]1[C@H]([C@H](O)[C@H](O)CO)OC(C(=O)O)=C[C@@H]1N=C(N)N [Zanamivir, zanamivir]",showed sensitivity to the drug,,all showed sensitivity to the drug,approximately twofold more sensitive,no apparent differences,,,,,
"CCC(CC)[C@H](NC(C)=O)[C@@H]1[C@H](O)[C@@H](C(=O)O)C[C@H]1N=C(N)N [Peramivir, peramivir]",,,,approximately twofold more sensitive,no apparent differences,,,fourfold more sensitive,threefold more sensitive,0·08 (1) fold
